Measurements published in patent publication US12479847B2 (DANA-FARBER CANCER INSTITUTE, INC., priority 2019, dated 2025).

Experiments:
Assay in all cases: KINOMEscan (ScanMAX) kinase profiling
Format in all cases: binding
[1] = molecular target: T1, panel of 468 kinases (Homo sapiens, UniProt O43318); settings: TAK1; 1 μM; read-out: % control
T1 construct: purchased KINOMEscan (ScanMAX) service
T1 sequence (O43318 1-606): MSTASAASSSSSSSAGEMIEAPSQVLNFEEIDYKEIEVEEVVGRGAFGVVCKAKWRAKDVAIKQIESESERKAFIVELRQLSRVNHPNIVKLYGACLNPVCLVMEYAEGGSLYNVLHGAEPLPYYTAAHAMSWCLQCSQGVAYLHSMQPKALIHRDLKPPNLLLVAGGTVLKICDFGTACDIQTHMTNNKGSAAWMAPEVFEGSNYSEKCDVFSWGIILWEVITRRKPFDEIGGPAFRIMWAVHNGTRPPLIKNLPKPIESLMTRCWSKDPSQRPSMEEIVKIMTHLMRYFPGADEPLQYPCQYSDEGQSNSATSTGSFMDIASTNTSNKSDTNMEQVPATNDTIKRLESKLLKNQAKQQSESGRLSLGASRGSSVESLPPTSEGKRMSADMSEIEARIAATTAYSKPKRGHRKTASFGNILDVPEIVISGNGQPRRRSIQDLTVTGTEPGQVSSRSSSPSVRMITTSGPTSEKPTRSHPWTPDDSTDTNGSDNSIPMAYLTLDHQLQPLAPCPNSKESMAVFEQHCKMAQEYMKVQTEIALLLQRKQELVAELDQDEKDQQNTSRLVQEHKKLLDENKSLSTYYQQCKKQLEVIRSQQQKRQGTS

[2] = molecular target: T2, panel of 468 kinases (Homo sapiens, UniProt O75914); settings: PAK3; 1 μM; read-out: % control
T2 construct: purchased KINOMEscan (ScanMAX) service

[3] = molecular target: T3, panel of 468 kinases (Homo sapiens, UniProt P04626); settings: ERBB2; 1 μM; read-out: % control
T3 construct: purchased KINOMEscan (ScanMAX) service

[4] = molecular target: T4, panel of 468 kinases (Homo sapiens, UniProt P10721, D816H); settings: KIT(D816H); 1 μM; read-out: % control
T4 construct: purchased KINOMEscan (ScanMAX) service

[5] = molecular target: T5, panel of 468 kinases (Homo sapiens, UniProt P22607, G697C); settings: FGFR3(G697C); 1 μM; read-out: % control
T5 construct: purchased KINOMEscan (ScanMAX) service

[6] = molecular target: T6, panel of 468 kinases (Homo sapiens, UniProt Q13546); settings: RIPK1; 1 μM; read-out: % control
T6 construct: purchased KINOMEscan (ScanMAX) service
T6 sequence (Q13546 1-671): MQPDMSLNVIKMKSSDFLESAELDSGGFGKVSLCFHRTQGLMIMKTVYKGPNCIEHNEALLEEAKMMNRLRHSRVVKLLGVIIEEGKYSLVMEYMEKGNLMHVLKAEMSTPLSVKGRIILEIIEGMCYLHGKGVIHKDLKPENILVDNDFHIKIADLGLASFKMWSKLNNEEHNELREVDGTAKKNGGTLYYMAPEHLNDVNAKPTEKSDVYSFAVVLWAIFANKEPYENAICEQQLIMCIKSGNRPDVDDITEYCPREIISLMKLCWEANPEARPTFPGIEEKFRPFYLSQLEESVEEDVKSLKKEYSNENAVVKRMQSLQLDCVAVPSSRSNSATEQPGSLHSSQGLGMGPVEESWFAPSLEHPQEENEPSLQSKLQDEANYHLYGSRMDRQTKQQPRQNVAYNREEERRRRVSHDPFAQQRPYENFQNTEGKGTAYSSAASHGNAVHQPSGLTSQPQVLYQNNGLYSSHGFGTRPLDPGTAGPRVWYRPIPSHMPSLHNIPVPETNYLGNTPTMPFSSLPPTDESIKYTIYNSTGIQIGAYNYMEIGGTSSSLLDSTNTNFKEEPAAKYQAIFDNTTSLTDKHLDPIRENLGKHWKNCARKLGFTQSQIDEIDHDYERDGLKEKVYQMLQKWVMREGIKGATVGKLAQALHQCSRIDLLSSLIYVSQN

[7] = molecular target: T7, panel of 468 kinases (Homo sapiens, UniProt Q15835); settings: GRK1; 1 μM; read-out: % control
T7 construct: purchased KINOMEscan (ScanMAX) service
T7 sequence (Q15835 1-563): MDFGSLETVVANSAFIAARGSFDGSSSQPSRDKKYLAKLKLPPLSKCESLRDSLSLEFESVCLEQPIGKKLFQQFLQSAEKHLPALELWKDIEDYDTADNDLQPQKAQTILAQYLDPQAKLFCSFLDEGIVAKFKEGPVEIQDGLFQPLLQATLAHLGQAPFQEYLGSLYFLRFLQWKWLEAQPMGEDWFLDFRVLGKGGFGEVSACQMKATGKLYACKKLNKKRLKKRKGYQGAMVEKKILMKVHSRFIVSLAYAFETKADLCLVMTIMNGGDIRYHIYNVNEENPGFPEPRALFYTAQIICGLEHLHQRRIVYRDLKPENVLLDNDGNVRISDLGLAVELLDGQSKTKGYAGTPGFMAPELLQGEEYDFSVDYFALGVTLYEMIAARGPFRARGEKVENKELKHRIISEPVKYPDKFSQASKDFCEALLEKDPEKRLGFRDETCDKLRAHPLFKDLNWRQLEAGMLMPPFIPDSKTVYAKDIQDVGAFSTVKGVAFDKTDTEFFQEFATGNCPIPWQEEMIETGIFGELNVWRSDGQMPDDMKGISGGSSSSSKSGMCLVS

[8] = molecular target: T8, panel of 468 kinases (Homo sapiens, UniProt Q8WU08); settings: YANK1; 1 μM; read-out: % control
T8 construct: purchased KINOMEscan (ScanMAX) service

[9] = molecular target: T9, panel of 468 kinases (Homo sapiens, UniProt Q9BYT3); settings: STK33; 1 μM; read-out: % control
T9 construct: purchased KINOMEscan (ScanMAX) service

[10] = molecular target: T10, panel of 468 kinases (Homo sapiens, UniProt Q9UPE1); settings: SRPK3; 1 μM; read-out: % control
T10 construct: purchased KINOMEscan (ScanMAX) service

[11] = molecular target: T11, panel of 468 kinases (Homo sapiens, UniProt Q9Y5S2); settings: MRCKB; 1 μM; read-out: % control
T11 construct: purchased KINOMEscan (ScanMAX) service
T11 sequence (Q9Y5S2 whole entry): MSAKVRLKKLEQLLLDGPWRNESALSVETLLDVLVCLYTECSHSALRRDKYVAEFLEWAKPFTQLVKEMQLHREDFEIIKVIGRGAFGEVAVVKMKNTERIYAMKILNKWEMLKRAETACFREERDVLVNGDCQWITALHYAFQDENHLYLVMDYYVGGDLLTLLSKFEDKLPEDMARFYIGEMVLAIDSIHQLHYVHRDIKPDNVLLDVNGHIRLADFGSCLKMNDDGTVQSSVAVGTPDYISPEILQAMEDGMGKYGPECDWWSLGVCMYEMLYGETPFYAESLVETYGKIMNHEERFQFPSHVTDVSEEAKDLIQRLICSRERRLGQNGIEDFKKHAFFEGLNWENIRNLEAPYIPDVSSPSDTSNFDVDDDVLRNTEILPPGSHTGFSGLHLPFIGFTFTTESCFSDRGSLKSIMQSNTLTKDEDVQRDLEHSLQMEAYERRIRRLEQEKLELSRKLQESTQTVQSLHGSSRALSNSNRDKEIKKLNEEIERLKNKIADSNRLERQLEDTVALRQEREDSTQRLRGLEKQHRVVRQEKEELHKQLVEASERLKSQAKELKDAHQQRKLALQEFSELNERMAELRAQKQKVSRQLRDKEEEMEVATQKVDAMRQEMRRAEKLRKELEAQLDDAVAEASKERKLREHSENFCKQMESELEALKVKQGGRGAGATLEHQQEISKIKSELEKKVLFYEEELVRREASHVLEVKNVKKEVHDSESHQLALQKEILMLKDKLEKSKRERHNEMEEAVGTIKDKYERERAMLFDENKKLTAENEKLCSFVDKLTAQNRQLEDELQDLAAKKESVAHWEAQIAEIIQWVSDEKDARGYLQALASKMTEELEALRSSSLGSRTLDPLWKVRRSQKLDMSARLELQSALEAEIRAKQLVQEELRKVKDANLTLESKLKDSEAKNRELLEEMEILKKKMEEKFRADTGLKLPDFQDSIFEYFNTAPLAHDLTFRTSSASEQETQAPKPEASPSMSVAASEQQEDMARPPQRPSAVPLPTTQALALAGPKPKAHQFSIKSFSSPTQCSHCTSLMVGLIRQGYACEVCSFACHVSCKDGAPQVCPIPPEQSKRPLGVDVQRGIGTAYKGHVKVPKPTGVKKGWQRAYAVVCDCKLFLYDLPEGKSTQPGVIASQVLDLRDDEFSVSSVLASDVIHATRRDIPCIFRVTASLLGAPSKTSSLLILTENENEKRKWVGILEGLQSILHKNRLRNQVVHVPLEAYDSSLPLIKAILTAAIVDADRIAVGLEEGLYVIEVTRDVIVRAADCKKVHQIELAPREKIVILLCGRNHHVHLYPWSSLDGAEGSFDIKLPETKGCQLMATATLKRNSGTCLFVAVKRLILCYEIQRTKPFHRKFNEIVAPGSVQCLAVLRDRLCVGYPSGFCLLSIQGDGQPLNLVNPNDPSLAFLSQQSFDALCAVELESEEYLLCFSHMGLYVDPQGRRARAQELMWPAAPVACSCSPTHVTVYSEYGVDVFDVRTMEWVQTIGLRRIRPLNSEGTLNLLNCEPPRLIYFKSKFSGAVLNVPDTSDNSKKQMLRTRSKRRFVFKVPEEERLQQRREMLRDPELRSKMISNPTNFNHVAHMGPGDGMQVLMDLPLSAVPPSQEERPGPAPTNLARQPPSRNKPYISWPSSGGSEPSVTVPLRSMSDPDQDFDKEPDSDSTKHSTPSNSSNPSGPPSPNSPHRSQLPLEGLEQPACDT

T4 sequence (P10721 26-976 D816H): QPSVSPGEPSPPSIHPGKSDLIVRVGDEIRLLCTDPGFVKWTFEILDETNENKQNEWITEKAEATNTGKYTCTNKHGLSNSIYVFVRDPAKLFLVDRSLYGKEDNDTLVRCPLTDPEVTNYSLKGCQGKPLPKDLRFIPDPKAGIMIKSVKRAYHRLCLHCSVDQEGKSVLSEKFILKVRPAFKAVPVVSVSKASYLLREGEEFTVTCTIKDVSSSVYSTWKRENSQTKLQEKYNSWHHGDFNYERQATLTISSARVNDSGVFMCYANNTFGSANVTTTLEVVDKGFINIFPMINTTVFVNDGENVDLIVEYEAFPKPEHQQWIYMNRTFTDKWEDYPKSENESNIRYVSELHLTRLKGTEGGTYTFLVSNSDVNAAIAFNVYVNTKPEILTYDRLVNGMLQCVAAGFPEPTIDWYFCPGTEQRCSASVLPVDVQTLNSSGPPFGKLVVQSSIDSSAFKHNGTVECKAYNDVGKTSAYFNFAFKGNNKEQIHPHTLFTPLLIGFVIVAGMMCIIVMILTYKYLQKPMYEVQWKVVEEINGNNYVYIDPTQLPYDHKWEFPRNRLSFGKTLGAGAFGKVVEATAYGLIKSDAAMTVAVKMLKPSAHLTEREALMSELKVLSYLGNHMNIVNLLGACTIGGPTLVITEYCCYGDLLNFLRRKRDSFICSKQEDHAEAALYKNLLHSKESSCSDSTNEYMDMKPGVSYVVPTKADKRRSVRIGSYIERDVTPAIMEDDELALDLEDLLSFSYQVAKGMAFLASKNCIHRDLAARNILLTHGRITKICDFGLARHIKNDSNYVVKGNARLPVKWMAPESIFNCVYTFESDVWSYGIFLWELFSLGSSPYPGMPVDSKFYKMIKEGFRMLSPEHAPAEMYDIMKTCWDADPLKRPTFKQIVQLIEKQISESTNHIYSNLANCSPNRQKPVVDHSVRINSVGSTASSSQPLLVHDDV
T8 sequence (Q8WU08 whole entry): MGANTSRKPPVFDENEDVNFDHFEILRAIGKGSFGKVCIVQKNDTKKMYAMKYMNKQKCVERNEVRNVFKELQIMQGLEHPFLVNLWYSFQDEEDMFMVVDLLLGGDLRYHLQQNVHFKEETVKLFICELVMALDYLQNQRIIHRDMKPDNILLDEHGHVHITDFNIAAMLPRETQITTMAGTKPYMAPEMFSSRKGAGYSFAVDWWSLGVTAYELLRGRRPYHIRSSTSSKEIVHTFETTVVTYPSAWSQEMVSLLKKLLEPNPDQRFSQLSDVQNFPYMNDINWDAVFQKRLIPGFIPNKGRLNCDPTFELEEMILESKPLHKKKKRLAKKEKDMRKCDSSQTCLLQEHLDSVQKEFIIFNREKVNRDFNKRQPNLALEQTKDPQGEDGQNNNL
T9 sequence (Q9BYT3 whole entry): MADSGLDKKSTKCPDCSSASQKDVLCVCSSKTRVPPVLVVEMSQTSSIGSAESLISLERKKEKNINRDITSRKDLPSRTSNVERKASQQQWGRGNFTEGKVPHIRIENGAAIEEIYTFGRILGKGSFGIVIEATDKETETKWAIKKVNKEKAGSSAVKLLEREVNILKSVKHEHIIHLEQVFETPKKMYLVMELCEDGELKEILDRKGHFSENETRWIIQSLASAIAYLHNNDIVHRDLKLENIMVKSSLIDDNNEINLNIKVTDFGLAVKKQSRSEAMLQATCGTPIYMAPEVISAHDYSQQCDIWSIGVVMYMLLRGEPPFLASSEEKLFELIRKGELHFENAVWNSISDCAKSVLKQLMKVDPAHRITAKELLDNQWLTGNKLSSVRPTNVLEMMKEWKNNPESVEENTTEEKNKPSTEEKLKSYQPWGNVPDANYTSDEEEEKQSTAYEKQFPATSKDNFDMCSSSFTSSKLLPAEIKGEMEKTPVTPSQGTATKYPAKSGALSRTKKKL
T2 sequence (O75914 whole entry): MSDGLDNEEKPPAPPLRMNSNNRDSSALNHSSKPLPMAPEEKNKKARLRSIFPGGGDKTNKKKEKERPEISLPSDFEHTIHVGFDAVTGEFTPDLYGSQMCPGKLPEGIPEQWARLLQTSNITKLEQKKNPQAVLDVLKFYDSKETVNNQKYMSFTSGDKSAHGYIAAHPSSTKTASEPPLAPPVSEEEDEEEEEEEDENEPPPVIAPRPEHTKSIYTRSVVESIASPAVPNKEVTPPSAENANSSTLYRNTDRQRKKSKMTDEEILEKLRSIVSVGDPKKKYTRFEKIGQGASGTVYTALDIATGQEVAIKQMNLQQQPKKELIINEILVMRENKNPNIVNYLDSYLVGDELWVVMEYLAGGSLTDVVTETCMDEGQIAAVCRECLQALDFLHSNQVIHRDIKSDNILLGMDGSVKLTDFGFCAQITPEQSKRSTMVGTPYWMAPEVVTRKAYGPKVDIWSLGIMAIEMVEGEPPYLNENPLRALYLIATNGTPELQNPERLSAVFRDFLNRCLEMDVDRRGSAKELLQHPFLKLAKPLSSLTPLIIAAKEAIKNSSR
T5 sequence (P22607 23-806 G697C): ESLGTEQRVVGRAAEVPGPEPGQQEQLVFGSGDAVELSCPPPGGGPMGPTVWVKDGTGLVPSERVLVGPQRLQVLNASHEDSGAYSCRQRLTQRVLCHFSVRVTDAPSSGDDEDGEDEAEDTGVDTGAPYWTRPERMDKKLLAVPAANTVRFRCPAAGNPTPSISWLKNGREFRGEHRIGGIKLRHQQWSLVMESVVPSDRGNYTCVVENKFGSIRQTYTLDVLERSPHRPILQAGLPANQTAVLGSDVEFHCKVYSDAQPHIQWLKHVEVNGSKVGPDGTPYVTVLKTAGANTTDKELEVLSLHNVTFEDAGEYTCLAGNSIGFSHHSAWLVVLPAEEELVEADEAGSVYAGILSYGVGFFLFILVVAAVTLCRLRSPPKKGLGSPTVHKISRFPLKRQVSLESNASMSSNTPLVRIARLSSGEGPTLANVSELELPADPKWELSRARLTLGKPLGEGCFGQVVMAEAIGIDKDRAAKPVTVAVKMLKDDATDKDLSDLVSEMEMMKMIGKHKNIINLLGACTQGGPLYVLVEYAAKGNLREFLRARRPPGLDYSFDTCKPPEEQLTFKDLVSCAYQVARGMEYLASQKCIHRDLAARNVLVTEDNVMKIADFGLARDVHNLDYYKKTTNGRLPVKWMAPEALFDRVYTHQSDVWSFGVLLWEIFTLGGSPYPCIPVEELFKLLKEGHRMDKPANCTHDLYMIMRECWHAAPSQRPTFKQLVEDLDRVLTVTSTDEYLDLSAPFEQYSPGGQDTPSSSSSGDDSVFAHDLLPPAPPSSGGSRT

| SMILES | remaining binding at 1 µM [1] | remaining binding at 1 µM [2] | remaining binding at 1 µM [3] | remaining binding at 1 µM [4] | remaining binding at 1 µM [5] | remaining binding at 1 µM [6] | remaining binding at 1 µM [7] | remaining binding at 1 µM [8] | remaining binding at 1 µM [9] | remaining binding at 1 µM [10] | remaining binding at 1 µM [11] |
| --- | --- | --- | --- | --- | --- | --- | --- | --- | --- | --- | --- |
| CNc1nc(Nc2ccc(S(=O)(=O)N3CCC(N4CCOCC4)CC3)cc2OC)nc2[nH]cc(Cl)c12 [Compound 12, 5-chloro-N2-(2-methoxy-4-((4-morpholinopiperidin-1-yl)sulfonyl)phenyl)-N4-methyl-7H-pyrrolo[2,3-d]pyrimidine-2,4-diamine] | 100% | 100% | 80% | 100% | 100% | 92% | 79% | 100% | 10% | 99% | 100% |
| CNc1nc(Nc2ccc(C(=O)N3CCC(N4CCOCC4)CC3)c3c2OCO3)nc2[nH]cc(Cl)c12 [Compound 75, (7-((5-chloro-4-(methylamino)-7H-pyrrolo[2,3-d]pyrimidin-2-yl)amino)benzo[d][1,3]dioxol-4-yl)(4-morpholinopiperidin-1-yl)methanone] | 29% | 97% | 85% | 99% | 100% | 89% | 88% | 100% | 7.2% | 40% | 100% |
| CNc1nc(Nc2ccc(P3(=O)CCN(C4CCOCC4)CC3)cc2OC)nc2[nH]cc(Cl)c12 [Compound 77, 4-(4-((5-chloro-4-(methylamino)-7H-pyrrolo[2,3-d]pyrimidin-2-yl)amino)-3-methoxyphenyl)-1-(tetrahydro-2H-pyran-4-yl)-1,4-azaphosphinane 4-oxide] | 84% | 91% | 99% | 93% | 100% | 88% | 88% | 98% | 6.9% | 88% | 100% |
